# Data: PMC12631437, “Evaluation of the Activity of 4‑Quinolones against Multi-Life Stages of Plasmodium spp” (ACS Omega, 2025)
# Values joined by “and” are separate entries in the source; they are usually repeats but may differ in a detail not shown here. Equal entries are not always repeated. Where two headings read alike, the source gives them in different places.
# Key:
# [1] = tested on: P. falciparum DHODH strain; test: SYBR Green growth assay, asexual blood stages, DHODH resistant mutant; assay type: cell-based, Plasmodium falciparum
# Description: (§1) Healthy blood samples for parasite culture were obtained from voluntary donors (approved under protocol #28176720.9.0000.0011), processed to remove white blood cells, and stored at 2 °C–8 °C for up to 15 days. Parasite strains SB1-A6, 7G8, V1/S, and HB3 were acquired from BEI-MR4, while the ATQ R1 strain, carrying a V259L gene mutation, was generated in-house. Infected erythrocytes were cultured in RPMI 1640 medium supplemented with Hepes, sodium bicarbonate, glucose, Albumax, and gentamicin, […], and incubated in a 5% CO2, 5% O2, and 90% N2 gas mixture at 37 °C with daily medium changes. Parasitemia was monitored using Giemsa-stained blood smears.
# (§2) Bioassays were conducted with synchronized ring-stage parasites using sorbitol synchronization. Antimalarial compounds were evaluated in 96-well plates, and parasite growth was assessed using a SYBR Green-based fluorescence assay The assays were conducted when the parasite quantity reached at least 70% of the ring stage. Compounds were initially added at specific concentrations in the first wells, followed by serial dilution (1:2) ranging from 20 μM to 0.009 μM. Subsequently, a solution containing parasites in RPMI medium at a hematocrit of 2% was added to each well, and the parasites were then incubated for 72 h.
# (§3) To assess parasite growth, the culture medium was replaced with a lysis solution (Trisbase: 49.31%, EDTA: 30.00%, Saponin: 0.16%, Triton: 0.02%) containing the fluorescent dye SYBR Green (Sigma). After a 30 min incubation, fluorescence readings were taken to determine the 50% inhibitory concentration (IC50) of parasite growth. The IC50 values were determined using concentration–response curves generated in GraphPad 8 software. Additionally, the resistance index was calculated by comparing IC50 values obtained for the sensitive 3D7 strain with those of the resistant strains.
# [2] = tested on: P. falciparum SB1-A6 strain; test: SYBR Green growth assay, asexual blood stages, SB1-A6 strain; assay type: cell-based, Plasmodium falciparum
# Description: as §1, §2, §3
# [3] = Mitochondrial toxicity, HepG2 cells cultured in glucose or galactose (resazurin); assay type: cell-based; settings: human, 3.125–50 μM, read-out: cell viability
# Description: To evaluate mitochondrial toxicity, HepG2 cells were cultured in RPMI-1640 medium under two metabolic conditions: one group was maintained in standard RPMI supplemented with 2 g/L glucose (glucose condition), while the second group was gradually adapted to rely on galactose as the primary energy source. For this adaptation, glucose levels were reduced by 20% every 2 days until reaching a final concentration of 20% of the original glucose amount. On the day of the assay, the […] cells were cultured in glucose-free RPMI medium supplemented with 10 mM galactose. When cells reached 80% confluence, they were detached using 2 mL of trypsin-EDTA solution (0.2 g of EDTA) for 5 min at 37 °C, then resuspended in fresh medium and centrifuged at 100 × g for 1 min. After centrifugation, cells were counted using a Neubauer chamber and seeded at […] per well in 96-well plates containing 180 μL of culture medium. Plates were incubated at 37 °C with 5% CO2 for 12–16 h to allow for cell adhesion. […] After treatment, 40 μL of a 0.15 mg/mL resazurin solution (RSZ) was added to each well and incubated for an additional 5 h. RSZ is a nontoxic, cell-permeable blue dye that is reduced by metabolically active cells to highly fluorescent pink resorufin. Fluorescence was measured using a fluorimeter with excitation/emission at 560/590 nm. Cell viability was calculated relative to untreated controls (set at 100%), determined using GraphPad Prism 8.
# [4] = tested on: P. berghei sexual phases in An. stephensi; test: In vivo transmission-blocking assay, P. berghei infected CD1 mice, An. stephensi; set-up: species or system Plasmodium berghei; settings: 2 doses of 50 mg/kg 12 h apart
# Description: For this assay, a colony of An. stephensi was used. The lab-reared An. stephensi was kept under controlled conditions, with a temperature of 26 °C ± 1 °C, a 12/12 h light/dark cycle, a relative humidity of 70% ± 10%, and fed a 30% sugar solution as needed.
# Female CD1 mice (4 to 6 weeks old) were infected by intraperitoneal inoculation (i.p.) containing 10 million erythrocytes infected with P. berghei expressing the GFP fluorescent protein. After 4 days, when parasites in the sexual stages were detected via Giemsa-stained blood smears, mice with similar gametocytemia and parasitemia were randomly divided into three groups of two animals each. The groups of two mices were treated orally with compound 1 at two doses of 50 mg/kg, spaced 12 h apart. […] Following the second dose, mice were anesthetized and placed in individual cages containing approximately 50 female A. stephensi mosquitoes, which had been starved for 24 h before the assay. Blood feeding lasted for 30 min, after which unfed mosquitoes were removed. Engorged females were maintained in an insectary at 21 ± 1 °C and 60% relative humidity, receiving a 30% glucose solution.
# A group of 10 mosquitoes was set aside to assess sporozoite development in salivary glands, following a protocol similar to the one described previously, with dissections performed 21 days postblood meal. Additionally, 10 μL of mouse blood was collected immediately after treatment with the compounds and incubated at room temperature for 15 min. Exflagellation was observed under optical microscopy to evaluate the effect of 4-quinolone-derived molecules on microgametocyte activity.
structure (smiles),measurement,setting,value
"CCCCCCCCCCCc1cc(=O)c2ccccc2[nH]1 [compound 1, 2-Undecilquinolin-4(1H)-one]",IC50,"[1]; Plasmodium falciparum, 72 h",0.06 ± 0.01 µM
same,RI (resistance index),[1]; ratio of IC50 DHODH to 3D7,0.3
same,IC50,"[2]; Plasmodium falciparum, 72 h",7 ± 1 µM
same,RI (resistance index),[2]; ratio of IC50 SB1-A6 to 3D7,35
same,viability at 24 h,"[3]; HepG2 cells adapted to galactose, HepG2 in galactose",< 0.5%
same,viability at 24 h,"[3]; HepG2 cells cultured in glucose, HepG2 in glucose",> 50%
same,Prevalence of infection in An. stephensi mosquitoes (Positive),[4],70%
same,reduction in the infection rate (salivary glands),[4]; 21 days postinfection,91%
same,reduction in the number of P. berghei sporozoites (in vivo),"[4]; 21 days postinfection, 50 mg/kg","91,30% and 91%"
same,reduction in male exflagellation centers (in vivo),"[4]; blood at mosquito feeding, 50 mg/kg","85,17% and 85%"
